From ChEMBL document CHEMBL3994635, “Inhibition of LPS-stimulated ROS production by fluorinated and hydroxylated chalcones in RAW 264.7 macrophages with structure-activity relationship study” (Bioorg Med Chem Lett, 2017)

Key:
RAW264.7 [1] = assay: Cytotoxicity in mouse RAW264.7 cells assessed as cell viability after 24 hrs by MTS assay; format: cell-based; settings: raw264.7, 24 h
RAW264.7 [2] = assay: Inhibition of LPS-stimulated ROS production in mouse RAW264.7 cells preincubated for 1 hr followed by LPS stimulation for 24 hrs measured after 30 mins by CMH2DCFDA probe-based fluorescence assay; format: functional, cell-based
[3] = Cytotoxicity in mouse RAW264.7 cells assessed as cell viability at 1 uM after 24 hrs by MTS assay; format: cell-based; settings: read-out: Activity
RAW264.7 [4] = assay: Inhibition of LPS-stimulated ROS production in mouse RAW264.7 cells after 22 hrs by C-400 fluorescent dye-based assay; format: functional, cell-based; settings: RAW264.7, 22 h

SMILES | Activity (RAW264.7 [1]) | IC50 (RAW264.7 [2]) [µM] | viability at 24 h, 1 µM [3] [%] | IC50 (RAW264.7 [4]) [µM]
O=C(/C=C/c1ccc(F)cc1)c1cccc(O)c1 | Non-Toxic | > 10 |  | 
O=C(/C=C/c1cccc(F)c1)c1ccccc1O | Non-Toxic | > 10 |  | 
O=C(/C=C/c1cccc(C(F)(F)F)c1)c1ccc(O)cc1 | Non-Toxic | 1.44 |  | 
O=C(/C=C/c1ccccc1OC(F)(F)F)c1cccc(O)c1 | Non-Toxic | 1.61 |  | 
O=C(/C=C/c1ccccc1C(F)(F)F)c1ccccc1 | Non-Toxic | > 10 |  | 
O=C(/C=C/c1cccc(C(F)(F)F)c1)c1ccccc1 | Non-Toxic | > 10 |  | 
O=C(/C=C/c1ccc(OC(F)(F)F)cc1)c1cccc(O)c1 | Non-Toxic | > 10 |  | 
O=C(/C=C/c1ccc(OC(F)(F)F)cc1)c1ccccc1 | Non-Toxic | > 10 |  | 
O=C(/C=C/c1cccc(F)c1)c1cccc(O)c1 | Non-Toxic | > 10 |  | 
O=C(/C=C/c1ccccc1OC(F)(F)F)c1ccccc1 | Non-Toxic | > 10 |  | 
O=C(/C=C/c1cccc(F)c1)c1ccccc1 | Non-Toxic | > 10 |  | 
O=C(/C=C/c1cccc(OC(F)(F)F)c1)c1ccccc1 | Non-Toxic | > 10 |  | 
O=C(/C=C/c1ccc(F)cc1)c1ccccc1O | Non-Toxic | > 10 |  | 
O=C(/C=C/c1ccc(C(F)(F)F)cc1)c1ccccc1O | Non-Toxic | > 10 |  | 
O=C(/C=C/c1cccc(OC(F)(F)F)c1)c1cccc(O)c1 | Non-Toxic | > 10 |  | 
O=C(/C=C/c1ccc(C(F)(F)F)cc1)c1ccccc1 | Non-Toxic | > 10 |  | 
O=C(/C=C/c1ccc(F)cc1)c1ccc(O)cc1 | Non-Toxic | > 10 |  | 
O=C(/C=C/c1cccc(OC(F)(F)F)c1)c1ccc(O)cc1 | Non-Toxic | > 10 |  | 

SMILES | Activity (RAW264.7 [1]) | IC50 (RAW264.7 [2]) [µM] | viability at 24 h, 1 µM [3] [%] | IC50 (RAW264.7 [4]) [µM]
O=C(/C=C/c1cccc(C(F)(F)F)c1)c1cccc(O)c1 |  |  | < 90 | 
O=C(/C=C/c1ccccc1OC(F)(F)F)c1ccccc1O |  |  | < 90 | 
O=C(/C=C/c1ccccc1F)c1cccc(O)c1 | Non-Toxic | > 10 |  | 
O=C(/C=C/c1ccccc1F)c1ccc(O)cc1 | Non-Toxic | > 10 |  | 
O=C(/C=C/c1ccccc1C(F)(F)F)c1ccccc1O |  |  | < 90 | 
O=C(/C=C/c1ccccc1F)c1ccccc1O | Non-Toxic | > 10 |  | 
O=C(/C=C/c1ccccc1OC(F)(F)F)c1ccc(O)cc1 | Non-Toxic | 1.34 |  | 
O=C(/C=C/c1ccc(C(F)(F)F)cc1)c1ccc(O)cc1 | Non-Toxic | > 10 |  | 
O=C(/C=C/c1ccccc1C(F)(F)F)c1ccc(O)cc1 | Non-Toxic | > 10 |  | 
O=C(/C=C/c1ccc(OC(F)(F)F)cc1)c1ccc(O)cc1 | Non-Toxic | > 10 |  | 
O=C(/C=C/c1cccc(OC(F)(F)F)c1)c1ccccc1O |  |  | < 90 | 
O=C(/C=C/c1ccc(OC(F)(F)F)cc1)c1ccccc1O | Non-Toxic | > 10 |  | 
O=C(/C=C/c1cccc(C(F)(F)F)c1)c1ccccc1O |  |  | < 90 | 
O=C(/C=C/c1cccc(F)c1)c1ccc(O)cc1 | Non-Toxic | 9.15 |  | 
O=C(/C=C/c1ccccc1C(F)(F)F)c1cccc(O)c1 | Non-Toxic | > 10 |  | 
COc1cc(-c2[o+]c3cc(O)cc(O)c3cc2O)cc(OC)c1O [MALVIDIN CHLORIDE] |  |  |  | 9
O=C(/C=C/c1ccc(C(F)(F)F)cc1)c1cccc(O)c1 | Non-Toxic | > 10 |  | 
O=C(/C=C/c1ccccc1F)c1ccccc1 | Non-Toxic | > 10 |  | 
